Test results: patent US12539307B2, “Oral cannabinoid formulation comprising tocopheryl phosphates and long chain triglycerides or long chain fatty acids” (AVECHO BIOTECHNOLOGY LIMITED, priority 2020, dated 2026)

How the values were obtained:
[1] = In-vitro rat lipolysis: simulated rat gastric (0-30 min) and intestinal (30-90 min) digestion; assay type: in vitro ADME
Description: FIG. 4. CBD solubility in-vitro in simulated gastric (0-30 min) and intestinal (30-90 min) conditions. Group 1: MCT. Group 2: 50 mg/ml TPM in MCT. Group 3: 100 mg/ml TPM in MCT. Group 4: 100 mg/ml TPM in 1:1 MCT/Maisine CC. Group 5: 200 mg/ml TPM in 1:1 MCT/Maisine CC.
Further in-vitro lipolysis experiments were conducted to investigate CBD dispersibility and solubility in a model of the gastric and intestinal spaces. The effect of TPM and the formulation vehicle was assessed by comparison to CBD dissolved in an MCT vehicle at 100 mg/ml. A rat gastric-intestinal model was selected in order to have best correlation with a subsequent in-vivo pk study in rats.
The in vitro lipolysis experiment simulated rat gastrointestinal conditions. The dispersion study was done in a lipolysis vessel containing simulated rat gastric medium at pH 2.4 and the gastric digestion of the formulations was assessed during 30 min. Afterwards, a concentrated bile buffer together with pancreatin was added to the gastric medium leading to the final concentrations which simulated the rat intestinal conditions. Subsequently, lipid digestion and drug solubilization was evaluated for 60 min.

[2] = In vivo bioavailability (pk study) after a single oral gavage; design: species or system Sprague-Dawley rats; details: rats
Description: Male Sprague-Dawley rats (301-353 g at the time of the study) are acclimatized for a minimum of seven days on standard feed with free access to water. The rats are housed under controlled environmental parameters (temperature: 22.1° C., relative humidity: 57%), and with reversed light cycle (12 h/12 h).
The formulations are administered to each rat by oral gavage with a polyurethane feeding tube (Instech Laboratories Inc., Plymouth Meeting, USA). Blood samples (200 μL) are collected from the tail vein before dosing and at 0, 0.5, 1, 2, 4, 6, and 8 h after dosing. After the 6 h blood sample, the rats were given access to standard feed. At 23 h, the rats are euthanized by gassing and a blood sample is withdrawn from the heart immediately after. All blood samples were collected in ethylenediaminetetraacetic acid (EDTA) tripotassium salt dihydrate coated tubes (Sarstedt, Helsingborg, Sweden), and centrifuged at 10,000 RPM for 10 min. After centrifugation, the plasma was transferred to polypropylene microtubes and stored at −20° C. until LC-MS analysis.

[3] = In vitro intestinal digestion of carrier oil in fasted media (pH 6.5): solubilisation of CBD; assay type: in vitro ADME; details: with TPM
Description: FIG. 1—Solubilisation of CBD during in vitro intestinal digestion of carrier oil (MCT, LCT/LCFA, or a mixture of MCT:LCT/LCFA) in fasted media (pH 6.5). Total lipid was 110 mg (100 mg carrier oil+10 mg CBD). Data are mean±SD, n=3. A. CBD concentration (mg) during digestion in MCT. B. CBD concentration (mg) during digestion in LCT/LCFA (Maisine CC). C. CBD concentration (mg) during digestion in a mixture of MCT:LCT/LCFA (Maisine CC)
FIG. 2—Solubilisation of CBD in the presence of TPM during in vitro gastro-intestinal digestion of carrier oil (MCT, LCT/LCFA, or a mixture of MCT:LCT/LCFA) in fasted media. Total lipid was 110 mg (80-90 mg carrier oil+10 mg CBD+10-20 mg TPM). Data are mean±SD, n=3. A. CBD concentration (mg) during digestion in MCT with TPM. B. CBD concentration (mg) during digestion in LCT/LCFA (Maisine CC) with TPM. C. CBD concentration (mg) during digestion in a mixture of MCT:LCT/LCFA (Maisine CC) with TPM.
FIG. 3—Solubilisation of CBD in the presence of TPM during in vitro digestion of carrier oil (MCT, LCT/LCFA, or a mixture of MCT:LCT/LCFA) in fasted media (pH 6.5). Total lipid was 110 mg (80-90 mg carrier oil+10 mg CBD+10-20 mg TPM). Data are mean±SD, n=3. A. CBD concentration (mg) during digestion in 3:1 MCT:LCT/LCFA, with TPM. B. CBD concentration (mg) during digestion in 1:1 MCT:LCT/LCFA, with TPM. C. CBD concentration (mg) during digestion in 1:3 MCT:LCT/LCFA, with TPM.
In vitro digestion experiments were carried out to determine whether TPM in various carrier oils could increase the intestinal aqueous solubility of CBD. These experiments utilised a model of digestion in an intestinal environment at a pH of about 6.5. From the model, one can make determinations regarding the likely solubility of CBD or other cannabinoids such as THC in an aqueous intestinal fluid.

C=C(C)[C@@H]1CCC(C)=C[C@H]1c1c(O)cc(CCCCC)cc1O [CBD, cannabidiol]
dispersibility and solubility of CBD in simulated gastric and intestinal spaces ([1]; addition of TPM to MCT containing CBD (100 mg/ml)): increased | dispersibility and solubility of CBD in the intestinal space ([1]; addition of TPM to MCT:LCT/LCFA vehicles containing CBD (100 mg/ml)): increased | increase of mean Cmax relative to control CBD formulation in MCT alone ([2]; addition of 50 mg/ml TPM to MCT carrier): ~5 × | increase of mean Cmax relative to control CBD formulation in MCT alone ([2]; addition of 100 mg/ml TPM to MCT carrier): ~14 times | increase of mean Cmax relative to control CBD formulation in MCT alone ([2]; addition of 100 mg/ml TPM to MCT:LCT/LCFA carrier): ~30 × | increase of mean Cmax relative to control CBD formulation in MCT alone ([2]; addition of 200 mg/ml TPM to MCT:LCT/LCFA carrier): ~40 times | aqueous CBD solubility during digestion, by MCT:LCT/LCFA ratio ([3]; vehicle 1:1 MCT:LCT/LCFA): best increase | aqueous CBD solubility during digestion, by MCT:LCT/LCFA ratio ([3]; vehicle 1:3 MCT:LCT/LCFA, also significant CBD in immiscible oil phase): slight increase | aqueous CBD solubility during digestion, by MCT:LCT/LCFA ratio ([3]; vehicle 3:1 MCT:LCT/LCFA): CBD precipitation
